The compound `O=C(c1cc(-c2ccccc2)c2c(n1)OCCN(Cc1cc(C(F)(F)F)cc(C(F)(F)F)c1)C2=O)N1CCCCC1` [Reference Example 115, 4-[3,5-Bis(trifluoromethyl)benzyl]-2,3,4,5-tetrahydro-5-oxo-6-phenyl-8-piperidinocarbonylpyrido[3,2-f][1,4]oxazepine] registered a melting point of 218 to 220 °C.
Under `O=C1c2c(-c3ccccc3)ccnc2OCCN1Cc1ccc(Cl)c(Cl)c1` [Reference Example 119, 4-(3,4-Dichlorobenzyl)-2,3,4,5-tetrahydro-5-oxo-6-phenylpyrido[3,2-f][1,4]oxazepine] stands 189 to 192 °C; under `Cc1cnc2c(c1-c1ccccc1)C(=O)N(Cc1cc(C(F)(F)F)cc(C(F)(F)F)c1)C[C@@H](C)CO2` [Reference Example 86, (R)-5-[3,5-Bis(trifluoromethyl)benzyl]-2,3,4,5-tetrahydro-3,8-dimethyl-6-oxo-7-phenyl-6H-pyrido[2,3-b][1,5]oxazocine], 147 to 149 °C; under `Cc1cnc2c(c1-c1ccccc1)C(=O)N(Cc1ccccc1)CCN(C)C2=O` [Reference Example 106, 6-Benzyl-5,6,7,8,9,10-hexahydro-3,9-dimethyl-5,10-dioxo-4-phenylpyrido[2,3-f][1,4]diazocine], 183 to 184 °C.
Turning to `C[C@H]1COc2nccc(-c3ccccc3)c2C(=O)N(Cc2cc(C(F)(F)F)cc(C(F)(F)F)c2)C1` [Reference Example 126, (R)-5-[3,5-Bis(trifluoromethyl)benzyl]-2,3,4,5-tetrahydro-3-methyl-6-oxo-7-phenyl-6H-pyrido[2,3-b][1,5]oxazocine], the melting point lay within 142 to 143 °C.
Compound `Cc1ccc(-c2ccnc3c2C(=O)N(Cc2ccccc2)C[C@H](C)CO3)cc1` [Reference Example 135, (S)-5-Benzyl-2,3,4,5-tetrahydro-3-methyl-7-(4-methylphenyl)-6-oxo-6H-pyrido[2,3-b][1,5]oxazocine] gave a melting point of 148 to 149 °C.
The figure for `O=C1c2c(-c3ccccc3)ccnc2OCCN1Cc1cc(C(F)(F)F)cc(C(F)(F)F)c1` [Reference Example 65, 4-[3,5-Bis(trifluoromethyl)benzyl]-2,3,4,5-tetrahydro-5-oxo-6-phenylpyrido[3,2-f][1,4]oxazepine] is 200 to 201 °C.
Compound `CS(=O)(=O)NCc1cc(-c2ccccc2)c2c(n1)OCCN(Cc1cc(C(F)(F)F)cc(C(F)(F)F)c1)C2=O` [Reference Example 103, 4-[3,5-Bis(trifluoromethyl)benzyl]-2,3,4,5-tetrahydro-8-methanesulfonylaminomethyl-5-oxo-6-phenylpyrido[3,2-f][1,4]oxazepine] gave a melting point of 194 to 195 °C.
`O=C(c1cc(-c2ccccc2)c2c(n1)OCCN(Cc1cc(C(F)(F)F)cc(C(F)(F)F)c1)C2=O)N1CCOCC1` [Reference Example 116, 4-[3,5-Bis(trifluoromethyl)benzyl]-2,3,4,5-tetrahydro-8-morpholinocarbonyl-5-oxo-6-phenylpyrido[3,2-f][1,4]oxazepine] came in with a melting point of 265 to 266 °C.
The figure for `Cc1ccc(-c2ccnc3c2C(=O)N(Cc2cc(C(F)(F)F)cc(C(F)(F)F)c2)CCO3)cc1` [Reference Example 134, 4-[3,5-Bis(trifluoromethyl)benzyl]2,3,4,5-tetrahydro-5-oxo-6-(4-methylphenyl)pyrido[3,2-f][1,4]oxazepine] is 212 to 213 °C; for `NCc1cc(-c2ccccc2)c2c(n1)OCCN(Cc1cc(C(F)(F)F)cc(C(F)(F)F)c1)C2=O` [Reference Example 97, 8-Aminomethyl-4-[3,5-bis(trifluoromethyl)benzyl]-2,3,4,5-tetrahydro-5-oxo-6-phenylpyrido[3,2-f][1,4]oxazepine] it is 188 to 191 °C; for `C[C@H]1COc2nccc(-c3ccccc3)c2C(=O)N(Cc2ccccc2)C1` [Reference Example 124, (R)-5-Benzyl-2,3,4,5-tetrahydro-3-methyl-6-oxo-7-phenyl-6H-pyrido[2,3-b][1,5]oxazocine] it is 139 to 140 °C.
Turning to `CCCCNC(=O)c1cc(-c2ccccc2)c2c(n1)OCCN(Cc1cc(C(F)(F)F)cc(C(F)(F)F)c1)C2=O` [Reference Example 114, 4-[3,5-Bis(trifluoromethyl)benzyl]-N-n-butyl-2,3,4,5-tetrahydro-5-oxo-6-phenylpyrido[3,2-f][1,4]oxazepine-8-carboxamide], the melting point fell in the range of 194 to 196 °C.
`Cc1ccc(-c2ccnc3c2C(=O)N(Cc2ccccc2)CCO3)cc1` [Reference Example 133, 4-Benzyl-2,3,4,5-tetrahydro-5-oxo-6-(4-methylphenyl)pyrido[3,2-f][1,4]oxazepine] displayed a melting point of 203 to 204 °C.
Compound `Cc1ccc(-c2c3n(c(=O)c4ncccc24)CCC(C)CN(Cc2cc(C(F)(F)F)cc(C(F)(F)F)c2)C3=O)cc1` (racemic) [Reference Example 70, (+/−)-7-[3,5-Bis(trifluoromethyl)benzyl]-6,7,8,9,10,11-hexahydro-9-methyl-5-(4-methylphenyl)-6,13-dioxo-13H-[1,4]diazocino[2,1-g][1,7]naphthyridine] registered a melting point of 280 to 281 °C.
Consider `CC(=O)NCc1cc(-c2ccccc2)c2c(n1)OCCN(Cc1cc(C(F)(F)F)cc(C(F)(F)F)c1)C2=O` [Reference Example 102, 8-Acetylaminomethyl-4-[3,5-bis(trifluoromethyl)benzyl]-2,3,4,5-tetrahydro-5-oxo-6-phenylpyrido[3,2-f][1,4]oxazepine], for which the melting point lay in the range of 223 to 224 °C.
For `COc1cc(CN2CCCOc3nccc(-c4ccccc4)c3C2=O)cc(OC)c1OC` [Reference Example 122, 2,3,4,5-Tetrahydro-6-oxo-7-phenyl-5-(3,4,5-trimethoxybenzyl)-6H-pyrido[2,3-b][1,5]oxazocine], the melting point was 155 to 156 °C.
The figure for `CN(C)C(=O)c1cc(-c2ccccc2)c2c(n1)OCCN(Cc1cc(C(F)(F)F)cc(C(F)(F)F)c1)C2=O` [Reference Example 113, 4-[3,5-Bis(trifluoromethyl)benzyl]-N,N-dimethyl-2,3,4,5-tetrahydro-5-oxo-6-phenylpyrido[3,2-f][1,4]oxazepine-8-carboxamide] is 235 to 236 °C; for `CN1CCN(Cc2cc(C(F)(F)F)cc(C(F)(F)F)c2)C(=O)c2c(-c3ccccc3)ccnc2C1=O` [Reference Example 105, 6-[3,5-Bis(trifluoromethyl)benzyl]-5,6,7,8,9,10-hexahydro-9-methyl-5,10-dioxo-4-phenylpyrido[2,3-f][1,4]diazocine] it is 167 to 169 °C; for `CNCc1cc(-c2ccccc2)c2c(n1)OCCN(Cc1cc(C(F)(F)F)cc(C(F)(F)F)c1)C2=O` [Reference Example 98, 4-[3,5-Bis(trifluoromethyl)benzyl]-2,3,4,5-tetrahydro-8-methylaminomethyl-5-oxo-6-phenylpyrido[3,2-f][1,4]oxazepine] it is 152 to 154 °C.
In turn, `C[C@H]1CCn2c(c(-c3ccccc3)c3cccnc3c2=O)C(=O)N(Cc2cc(C(F)(F)F)cc(C(F)(F)F)c2)C1` [Reference Example 73, (9S)-7-[3,5-Bis(trifluoromethyl)benzyl]-6,7,8,9,10,11-hexahydro-9-methyl-6,13-dioxo-5-phenyl-13H-[1,4]diazocino[2,1-g] [1,7]naphthyridine] yielded a melting point of 242 to 244 °C.
Under `COc1cc(CN2CCOc3nccc(-c4ccccc4)c3C2=O)cc(OC)c1OC` [Reference Example 118, 2,3,4,5-Tetrahydro-5-oxo-6-phenyl-4-(3,4,5-trimethoxybenzyl)pyrido[3,2-f][1,4]oxazepine] stands 177 to 179 °C; under `Cc1ccc(-c2ccnc3c2C(=O)N(Cc2cc(C(F)(F)F)cc(C(F)(F)F)c2)C[C@H](C)CO3)cc1` [Reference Example 136, (S)-5-[3,5-Bis(trifluoromethyl)benzyl]2,3,4,5-tetrahydro-3-methyl-7-(4-methylphenyl)-6-oxo-6H-pyrido[2,3-b][1,5]oxazocine], 159 to 160 °C.
The figure for `O=C1c2c(-c3ccccc3)ccnc2NCCN1Cc1cc(C(F)(F)F)cc(C(F)(F)F)c1` [Reference Example 75, 4-[3,5-Bis(trifluoromethyl)benzyl]-2,3,4,5-tetrahydro-5-oxo-6-phenyl-1H-pyrido[2,3-e][1,4]diazepine] is 242 to 243 °C; for `CCN1CCN(Cc2cc(C(F)(F)F)cc(C(F)(F)F)c2)C(=O)c2c(ncc(C)c2-c2ccccc2)C1=O` [Reference Example 107, 6-[3,5-Bis(trifluoromethyl)benzyl]-9-ethyl-5,6,7,8,9,10-hexahydro-3-methyl-5,10-dioxo-4-phenylpyrido[2,3-f][1,4]diazocine] it is 228 to 229 °C; for `Cc1cc(-c2ccccc2)c2c(n1)OCCCN(Cc1cc(C(F)(F)F)cc(C(F)(F)F)c1)C2=O` [Reference Example 88, 5-[3,5-Bis(trifluoromethyl)benzyl]-2,3,4,5-tetrahydro-9-methyl-6-oxo-7-phenyl-6H-pyrido[2,3-b][1,5]oxazocine] it is 164 to 165 °C.
The figure for `CSCc1cc(-c2ccccc2)c2c(n1)OCCN(Cc1cc(C(F)(F)F)cc(C(F)(F)F)c1)C2=O` [Reference Example 96, 4-[3,5-Bis(trifluoromethyl)benzyl]-2,3,4,5-tetrahydro-8-methylthiomethyl-5-oxo-6-phenylpyrido[3,2-f][1,4]oxazepine] is 165 to 166 °C; for `O=C1c2c(-c3ccccc3)ccnc2OCCN1Cc1ccccc1` [Reference Example 121, 4-Benzyl-2,3,4,5-tetrahydro-5-oxo-6-phenylpyrido[3,2-f][1,4]oxazepine] it is 209 to 211 °C.
With `C[C@@H]1COc2nccc(-c3ccccc3)c2C(=O)N(Cc2cc(C(F)(F)F)cc(C(F)(F)F)c2)C1` [Reference Example 125, (S)-5-[3,5-Bis(trifluoromethyl)benzyl]-2,3,4,5-tetrahydro-3-methyl-6-oxo-7-phenyl-6H-pyrido[2,3-b][1,5]oxazocine], the melting point was in the range of 142 to 143 °C.

By melting point is commonly meant the temperature of the solid-liquid transition.

The values above are taken from patent US20020132817A1, “Heterocyclic compounds, their production and use” (priority 1998, published 2002).
